Assay results from patent US20240000767A1, “COMBINATION OF AN ALPHA2-ADRENOCEPTOR SUBTYPE C (ALPHA-2C) ANTAGONIST WITH A TASK1/3 CHANNEL BLOCKER FOR THE TREATMENT OF SLEEP APNEA” (Bayer Aktiengesellschaft, priority 2020, published 2024).

Biological target: human ADRA2C receptor (Homo sapiens (Human), UniProt P18825)
Assay: In vitro activity assay to determine the inhibition of recombinant ADRA2C (CHO-K1 cells, aequorin bioluminescence)
Format: cell-based
Settings: inhibition of noradrenaline-induced bioluminescence signal; some mean values from multiple determinations; read-out: ARα2C IC50
Description: B-2. In Vitro Activity Assay to Determine the Inhibition of Recombinant ADRA2C
The human ADRA2C receptor belongs to the G protein(guanine-dependent protein)-coupled receptors, the main function of which is the transduction of signals into the interior of the cell.
The investigations of the inhibition of the recombinant human ADRA2C receptors were carried out with stabily transfected CHO-K1 cells coexpressing the Gaq protein and the calcium-sensitive photoprotein aequorin. In this recombinant system, binding of the agonists noradrenaline to the ADRA2C receptor leads, after activation of a signal cascade, to calcium release from intracellular stores, which is detected by the intracellular calcium sensor aequorin as a bioluminescent signal. The method is described in detail in the reference below. [Wunder F., Kalthof B., Muller T., Hueser J. Functional Cell-Based Assays in Microliter Volumes for Ultra-High Throughput Screening. Combinatorial Chemistry & High Throughput Screening, Volume 11, Number 7, 2008, pp. 495-504(10). doi.org/10.2174/138620708785204054]
The activity of the test substances was determined via their ability to inhibit the agonist-induced increase of the bioluminescence signal. The concentration which can block half of this signal increase is referred to as IC50. The IC50 value is calculated using the 4 parameter logistic function (Hill function):
Top=upper threshold, Bottom=lower threshold, Slope=slope, IC50=turning point

Sequence of human ADRA2C receptor (P18825 whole entry): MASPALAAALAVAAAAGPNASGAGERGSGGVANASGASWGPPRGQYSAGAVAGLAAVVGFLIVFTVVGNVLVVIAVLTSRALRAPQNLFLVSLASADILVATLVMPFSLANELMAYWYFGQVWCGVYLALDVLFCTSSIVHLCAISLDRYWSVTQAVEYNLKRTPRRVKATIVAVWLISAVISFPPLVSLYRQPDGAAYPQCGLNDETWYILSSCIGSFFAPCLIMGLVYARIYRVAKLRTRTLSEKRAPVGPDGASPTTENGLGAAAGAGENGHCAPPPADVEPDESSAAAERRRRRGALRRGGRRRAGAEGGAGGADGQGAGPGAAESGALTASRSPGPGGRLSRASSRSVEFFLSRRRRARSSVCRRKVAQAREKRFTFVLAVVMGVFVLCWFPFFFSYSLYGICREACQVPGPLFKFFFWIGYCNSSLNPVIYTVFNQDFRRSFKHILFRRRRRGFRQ

Row | Structure (SMILES) | IC50 [nM]
1 | C[C@@H]1CCCN(C2CCN(c3ncc(C(=O)N(C)Cc4cccnc4)s3)CC2)C1 [Example 90] | 97
2 | Cc1nc(N2CCC(N3CCC[C@@H](C)C3)CC2)sc1C(=O)NCc1ncc(F)cc1F [Example 8, N-[(3,5-difluoropyridin-2-yl)methyl]-4-methyl-2-[(3R)-3-methyl[1,4′-bipiperidin]-1′-yl]-1,3-thiazole-5-carboxamide] | 591
3 | CC(NC(=O)c1cnc(N2CCC(N3CCC[C@@H](C)C3)CC2)s1)c1ncc(F)cc1F (mixture of isomers) [Example 55, diamix-N-[1-(3,5-Difluoropyridin-2-yl)ethyl]-2-[(3R)-3-methyl[1,4′-bipiperidin]-1′-yl]-1,3-thiazole-5-carboxamide] | 150
4 | O=C(NCc1ncc(F)cc1F)c1cnc(N2CCC(N3CCCC(COCC4CC4)C3)CC2)s1 (single isomer, unassigned; ent-2) [Example 115, ent-2-{3-[(Cyclopropylmethoxy)methyl][1,4′-bipiperidin]-1′-yl}-N-[(3,5-difluoropyridin-2-yl)methyl]-1,3-thiazole-5-carboxamide] | 0.61
5 | C[C@@H]1CCCN(C2CCN(c3ncc(C(=O)NCc4ccc(F)s4)s3)CC2)C1 [Example 57, N-[(5-Fluoro-2-thienyl)methyl]-2-[(3R)-3-methyl[1,4′-bipiperidin]-1′-yl]-1,3-thiazole-5-carboxamide] | 830
6 | O=C(NCc1ncc(F)cc1F)c1cnc(N2CCC(N3CCCC(OCC4CC(F)(F)C4)C3)CC2)s1 (racemic) [Example 7, 2-{3-[(3,3-difluorocyclobutyl)methoxy][1,4′-bipiperidin]-1′-yl}-N-[(3,5-difluoropyridin-2-yl)methyl]-1,3-thiazole-5-carboxamide (racemate)] | 49.6
7 | O=C(NCc1ncc(F)cc1F)c1cnc(N2CCC(N3CCCC(C(F)(F)F)C3)CC2)s1 (racemic) [Example 5, N-[(3,5-difluoropyridin-2-yl)methyl]-2-[3-(trifluoromethyl)[1,4′-bipiperidin]-1′-yl]-1,3-thiazole-5-carboxamide (racemate)] | 335
8 | O=C(NCc1ncc(F)cc1F)c1cnc(N2CCC(N3CCCC(c4ccccc4)C3)CC2)s1 (racemic) [Example 133, rac-N-[(3,5-Difluoropyridin-2-yl)methyl]-2-(3-phenyl[1,4′-bipiperidin]-1′-yl)-1,3-thiazole-5-carboxamide] | 0.95
9 | CCOC1CCCN(C2CCN(c3ncc(C(=O)NCc4ncc(F)cc4F)s3)CC2)C1 (single isomer, unassigned) [Example 123, ent-N-[(3,5-Difluoropyridin-2-yl)methyl]-2-(3-ethoxy[1,4′-bipiperidin]-1′-yl)-1,3-thiazole-5-carboxamide] | 260
10 | O=C(NCc1ncc(F)cc1F)c1cnc(N2CCC(N3CCc4cccc(F)c4C3)CC2)s1 [Example 144] | 1.8
11 | O=C(NCc1ncc(F)cc1F)c1cnc(N2CCC(N3CCCC(C4CC4)C3)CC2)s1 (centres unmarked) [Example 137] | 19
12 | Cc1cccnc1CNC(=O)c1cnc(N2CCC(N3CCC[C@@H](C)C3)CC2)s1 [Example 24, 2-[(3R)-3-methyl[1,4′-bipiperidin]-1′-yl]-N-[(3-methylpyridin-2-yl)methyl]-1,3-thiazole-5-carboxamide] | 1060
13 | C[C@@H]1CCCN(C2CCN(c3ncc(C(=O)NCc4ncc(Cl)cc4F)s3)CC2)C1 [Example 23, N-[(5-chloro-3-fluoropyridin-2-yl)methyl]-2-[(3R)-3-methyl[1,4′-bipiperidin]-1′-yl]-1,3-thiazole-5-carboxamide] | 17
14 | C[C@@H]1CCCN(C2CCN(c3ncc(C(=O)NCc4cccc(C(F)(F)F)c4)s3)CC2)C1 [Example 19, 2-[(3R)-3-Methyl[1,4′-bipiperidin]-1′-yl]-N-[3-(trifluoromethyl)benzyl]-1,3-thiazole-5-carboxamide] | 690
15 | O=C(NCc1ncc(F)cc1F)c1cnc(N2CCC(N3CCCC(OC(F)F)C3)CC2)s1 (racemic) [Example 16, 2-[3-(Difluoromethoxy)[1,4′-bipiperidin]-1′-yl]-N-[(3,5-difluoropyridin-2-yl)methyl]-1,3-thiazole-5-carboxamide (racemate)] | 2000
16 | CCC1CCCN(C2CCN(c3ncc(C(=O)NCc4ncc(F)cc4F)s3)CC2)C1 (racemic) [Example 17, N-[(3,5-Difluoropyridin-2-yl)methyl]-2-(3-ethyl[1,4′-bipiperidin]-1′-yl)-1,3-thiazole-5-carboxamide (racemate)] | 26.5
17 | CC1CCCN(C2CCN(c3ncc(C(=O)NCc4ncc(F)cc4F)s3)CC2)CC1 (single isomer, unassigned) [Example 105, ent-N-[(3,5-Difluoropyridin-2-yl)methyl]-2-[4-(4-methylazepan-1-yl)piperidin-1-yl]-1,3-thiazole-5-carboxamide] | 4.3
18 | O=C(NCc1ncc(F)cc1F)c1cnc(N2CCC(N3CCCCC3)CC2)s1 [Example 128, 2-([1,4′-Bipiperidin]-1′-yl)-N-[(3,5-difluoropyridin-2-yl)methyl]-1,3-thiazole-5-carboxamide] | 550
19 | O=C(NCc1ncc(F)cc1F)c1cnc(N2CCC(N3CCCC(CC4CC4)C3)CC2)s1 (racemic) [Example 3, 2-[3-(Cyclopropylmethyl)[1,4′-bipiperidin]-1′-yl]-N-[(3,5-difluoropyridin-2-yl)methyl]-1,3-thiazole-5-carboxamide (racemate)] | 2.9
20 | CC(C)(C)C1CCCN(C2CCN(c3ncc(C(=O)NCc4ncc(F)cc4F)s3)CC2)C1 (centres unmarked) [Example 149] | 35
21 | C[C@@H]1CCCN(C2CCN(c3ncc(C(=O)NCc4cc(Cl)ccc4F)s3)CC2F)C1 (mixture of isomers) [Example 113, diamix-N-(5-Chloro-2-fluorobenzyl)-2-[(3R)-3′-fluoro-3-methyl[1,4′-bipiperidin]-1′-yl]-1,3-thiazole-5-carboxamide] | 0.61
22 | C[C@@H]1CCCN(C2CCN(c3ncc(C(=O)NCc4cccc(C(F)(F)F)n4)s3)CC2)C1 [Example 28, 2-[(3R)-3-methyl[1,4′-bipiperidin]-1′-yl]-N-{[6-(trifluoromethyl)pyridin-2-yl]methyl}-1,3-thiazole-5-carboxamide] | 890
23 | CCc1sc(N2CCC(N3CCC[C@@H](C)C3)CC2)nc1C(=O)NCc1ncc(F)cc1F [Example 12, N-[(3,5-difluoropyridin-2-yl)methyl]-5-ethyl-2-[(3R)-3-methyl[1,4′-bipiperidin]-1′-yl]-1,3-thiazole-4-carboxamide] | 107
24 | C[C@@H]1CCCN(C2CCN(c3ncc(C(=O)NCc4ccncc4F)s3)CC2)C1 [Example 76, N-[(3-Fluoropyridin-4-yl)methyl]-2-[(3R)-3-methyl[1,4′-bipiperidin]-1′-yl]-1,3-thiazole-5-carboxamide] | 400
25 | O=C(NCc1ncc(F)cc1F)c1cnc(N2CCC(N3CCCC(COCC4(CF)CC4)C3)CC2)s1 (racemic) [Example 60, rac-N-[(3,5-Difluoropyridin-2-yl)methyl]-2-[3-({[1-(fluoromethyl)cyclopropyl]methoxy}methyl)[1,4′-bipiperidin]-1′-yl]-1,3-thiazole-5-carboxamide] | 74
26 | C[C@@H]1CCCN(C2CCN(c3ncc(C(=O)NCc4ncc(F)cc4Cl)s3)CC2)C1 [Example 31, N-[(3-chloro-5-fluoropyridin-2-yl)methyl]-2-[(3R)-3-methyl[1,4′-bipiperidin]-1′-yl]-1,3-thiazole-5-carboxamide] | 89
